Test results: patent US5273991A, “Imidazole-containing compositions and methods of use thereof analogs of distamycin” (Research Corporation Technologies, Inc., priority 1992, dated 1993)

Experiments:
[1] = tested on: T4 coliphage DNA; test: ethidium displacement assay, T4 coliphage DNA; type: binding; settings: ± 0.02 × 10^5 M^-1, pH 7.4
Text: (§1) The ethidium displacement assay is based on the fact that ethidium binding to DNA causes a large (approximately 25 fold) florescence enhancement as a result of the hydrophobic environment surrounding the ethidium molecule. Displacement of ethidium results in decreased fluorescence, and thus binding constants of drugs to DNA can be estimated and compared by measuring the loss of fluorescence as a function of added drug. The drug concentration which produces 50% inhibition of florescence is approximately inversely proportional to the apparent binding constant.
The apparent binding constants for T4 coliphage DNA are an indicator of the minor groove selectivity of the compounds of the present invention. The major groove of T4 coliphage DNA is blocked by α-glycosylation of the 5-hydroxymethylcytidine residues; therefore, the non-intercalating agents that bind to T4 coliphage DNA must interact in the minor groove [Lown (1982) Acc. Chem. Res., 15, 381].
(§2) The relative DNA binding constants (Kapp) of distamycin and Compounds 6-10 to calf thymus DNA, T4 coliphage DNA, poly(dAdT) and poly(dGdC) were determined using the ethidium displacement assay (Morgan et al., 1979). The Kapp of ethidium bromide (Debart et al., 1989) is included for comparison. 25 μL of a 2A260 DNA solution was added to 2 mL of ethidium bromide buffer (250 μL of 1.3 mM ethidium bromidestock, 314.9 mg Tris-HCl, 60.8 mg Tris base and 930/mg of Na2 EDTA.2H2 O in 250 ml H2 O) pH 7.4 and the maximum fluorescence was measured (excitation wavelength=546 nm, emission wavelength=600 nm) at ambient temperature.
(§3) DNA solutions of 2A260 were prepared as follows: T4 coliphage DNA: 10 units of DNA were dissolved in 1 mL of 10 mM sodium phosphate (pH 7.1) and 0.25 mM EDTA buffer to give a 10A260 solution. 0.3 mL of the stock solution were diluted to 1.5 mL with 10 mM sodium phosphate (pH 7.1) and 0.25 mM EDTA buffer to give a 2A260 solution. Calf thymus DNA: 100 units of DNA were dissolved in 5 mL of 10 mM sodium phosphate (pH 7.1) and 0.25 mM EDTA buffer to give a 20A260 solution. 1.5 mL of the stock solution were diluted to 15 mL with 10 mM sodium phosphate (pH 7.1) and 0.25 mM EDTA buffer to give a 2A260 solution. Poly(dA-dT) and Poly(dG-dC) DNA: 100 units of DNA were dissolved in 10 mL of 10 mM sodium phosphate pH 7.1) and 0.25 mM EDTA buffer to give a 10A260 solution. 3 mL of the stock solution were diluted to 15 mL with 10 mM sodium phosphate (pH 7.1) and 0.25 mM EDTA buffer to give a 2A260 solution.
(§4) Aliquots of 10 mM stock drug solution (1 mg of drug to be tested was dissolved with 1 mole equivalent of 0.1M HCl, and then diluted with appropriate volume of distilled water to make a 10 mM solution) were then added to the fluorescing solution and the florescence measured after each addition until a 50% reduction of fluorescence occurred. If the 10 mM stock solution lowered the % fluorescence too quickly, the stock solution was further diluted to 1 mM prior to titration. The apparent binding constant was then calculated from this equation: KEtBr [EtBr]=Kapp [drug], where [drug]=the concentration of drug at a 50% reduction of fluorescence and KEtBr [1×10^7 M^-1 for calf thymus and coliphage T4 DNA^18, 9.5×10^6 M^-1 for poly(dA.dT)^30, and 9.9×10^6 M^-1 for poly(dG.dC)^30 ] and [EtBr] were known. The concentration of ethidium bromide was 1.3 μM. The Kapp values are shown in Table I. In a separate experiment, the Kapp of Compound 5 for calf thymus DNA and poly[dGdC] were determined to be 0.3×10^5 M^-1 and 2.6×10^5 M^-1, respectively. The error in these measurements is ±[…].

[2] = molecular target: poly(dGdC); test: ethidium displacement assay, poly(dGdC); type: binding; settings: poly(dGdC); ± 0.02 × 10^5 M^-1; pH 7.4
Text: as §1, §2, §3, §4

[3] = tested on: poly(dG.dC); test: circular dichroism (CD) titration, poly(dG.dC); type: binding
Experimental: The DNA binding properties of the present compounds were assessed by circular dichroism (CD) titration experiments. Methods for CD titration can be found, for example, in Zimmer et al. (1986) Prog. Biophys. Molec. Biol 47, 31. The conformation of DNA can be readily determined by CD experiments, and for B-DNA, characteristic positive and negative Cotton effects are observed at 260 and 245 nm, respectively.
The interaction of Compounds 6-10 to a number of DNAs [calf thymus, poly(dA dT) and poly(dG dC)] were analyzed by CD titration studies. All the CD titration experiments were performed using identical procedures, concentrations of DNA, and increments of drug:DNA ratios (or `r`, i.e. moles of drug to moles of DNA base pairs). Therefore, the differences observed in the CD spectra for the titration of each of the compounds to the polydeoxynucleotides may be directly compared to reflect their DNA binding properties.
All experiments were performed with a continuous flow of nitrogen purging the polarimeter. A 1 mm path length jacketed cell was used and all experiments were done at room temperature. Initially, DNA [0.02 μ moles (base pairs), 130 μL] was placed in the cell and the spectrum of the DNA alone was collected. Aliquots of drug were added and the spectra collected. The drug solutions were 1 mM and amounts of the drug added correspond to a drug to base pair ratio of 0.05, 0.10, 0.15, 0.20, 0.25, 0.30, 0.40, 0.50, 0.60, 0.80, 1.00. The scan parameters were set and standard for all experiments. The spectra were collected from 400 nm to 200 nm. The sensitivity was set at 1 mdeg and the scan speed was set at 20 nm per minute. Three scans were accumulated and automatically averaged by the computer. The λmax and ellipticity (mdeg) for each spectrum were collected from the raw scans and the final plots were smoothed by the noise reduction program on the computer. […] The induced CD band is presumably due to the uv absorption π to π^* transition of the drug in the drug:DNA complex. […] Therefore interaction of these drugs with DNA causes only minor conformational changes in the double helix.

[4] = tested on: HL-60 (TB); test: NCI cytotoxicity screen (SRB); type: cell-based, human

CN(C)CCNC(=O)c1nc(NC(=O)c2nc(NC(=O)c3ccc(N(CCCl)CCCl)cc3)cn2C)cn1C [Compound 6, N-(N',N'-dimethylaminoethyl)-1-methyl-4-{4-[4,4-bis(2-chloroethyl)aminobenzamido]-1-methylimidazole-2-carboxamido}imidazole-2-carboxamide]
Association constant Kapp [1]: 236000 M⁻¹ | Association constant Kapp [2]: 455000 M⁻¹ | induced negative CD band, ellipticity ([3]; 330 nm, r'=0.2): 0.7 mdeg | isobestic point ([3]; poly(dG.dC)): 297 nm | IC50 ([4]; 48 h, Leukemia HL-60 (TB)): 7.84 µM | IC50 ([4]; HL-60 (TB), subsequent test date): 7.93 µM

CN(C)CCNC(=O)c1nc(NC(=O)c2nc(NC(=O)c3nc(NC(=O)c4ccc(N(CCCl)CCCl)cc4)cn3C)cn2C)cn1C [Compound 7, N-(N',N'-dimethylaminoethyl)-1-methyl-4-{1-methyl-4-[4-(4,4-bis-(2-chloroethyl)aminobenzamido)-1-methylimidazole-2-carboxamido]imidazole-2-carboxamido}imidazole-2-carboxamide]
Association constant Kapp [1]: 168000 M⁻¹ | Association constant Kapp [2]: 495000 M⁻¹ | negative Cotton effect, ellipticity ([3]; 333 nm, r'=0.2): 1 mdeg | isobestic point ([3]; poly(dG.dC)): 283 nm | IC50 ([4]; 48 h, Leukemia HL-60 (TB)): 0.72 µM

CN(C)CCNC(=O)c1nc(NC(=O)c2nc(NC(=O)c3nc(NCc4ccc(N(CCCl)CCCl)cc4)cn3C)cn2C)cn1C [Compound 8, N-(N',N'-dimethylaminoethyl)-1-methyl-4-{1-methyl-4-[4-(4,4-bis-(2-chloroethyl)aminobenzylamino)-1-methylimidazole-2-carboxamido]imidazole-2-carboxamido}imidazole-2-carboxamide]
Association constant Kapp [1]: 193000 M⁻¹ | Association constant Kapp [2]: 339000 M⁻¹ | new positive Cotton effect shoulder, wavelength ([3]; poly(dG.dC)): 288 nm

CN(C)CCNC(=O)c1nc(NC(=O)c2nc(NC(=O)CCCc3ccc(N(CCCl)CCCl)cc3)cn2C)cn1C [Compound 9, N-(N',N'-dimethylaminoethyl)-1-methyl-4-{4-[4,4-bis(2-chloroethyl)aminophenyl-1-butanamido]-1-methylimidazole-2-carboxamido}imidazole-2-carboxamide]
Association constant Kapp [1]: 75000 M⁻¹ | Association constant Kapp [2]: 76000 M⁻¹ | IC50 ([4]; 48 h, Leukemia HL-60 (TB)): 43.8 µM

CN(C)CCNC(=O)c1nc(NC(=O)c2nc(NC(=O)c3nc(NC(=O)CCCc4ccc(N(CCCl)CCCl)cc4)cn3C)cn2C)cn1C [Compound 10, N-(N',N'-dimethylaminoethyl)-1-methyl-4-{1-methyl-4-[4-(4,4-bis(2-chloroethyl)aminophenyl-1-butanamido)-1-methylimidazole-2-carboxamido]imidazole-2-carboxamido}imidazole-2-carboxamide]
Association constant Kapp [1]: 19000 M⁻¹ | Association constant Kapp [2]: 16000 M⁻¹ | negative Cotton effect band, ellipticity ([3]; 315 nm, equimolar titration): -1.0 mdeg | IC50 ([4]; 48 h, Leukemia HL-60 (TB)): 7.89 µM
